One experiment relates to human TH17 cells. Put plainly: Inhibition of IL-17 release from human TH17 cells. As to conditions: 96 h; isolated human TH17 cells, 4 days culture, IL-17A by HTRF; read-out: pIC50 IL-17 release (converted). The experiment is classed as cell-based. Put shortly:
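TH17 cells (CD4+CXCR3-CCR6+) enriched from healthy-donor PBMC isolated from heparinized whole blood. Supernatants collected on day 4; IL-17A quantified by HTRF.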
On the technique in general: Time-resolved FRET reads energy transfer from a long-lived donor to a nearby acceptor.
Turning to `COC1(C(=O)N2Cc3cc(S(C)(=O)=O)ccc3C2C(=O)Nc2ccc(C(O)(C(F)(F)F)C(F)(F)F)cc2)CCC1` (stereo not drawn) [Example 448, N-[4-(1,1,1,3,3,3-Hexafluoro-2-hydroxypropan-2-yl)phenyl]-2-[(1-methoxycyclobutyl)carbonyl]-5-(methylsulfonyl)-2,3-dihydro-1H-isoindole-1-carboxamide], the IC50 was 79.4 nM.

The same experiment, now with this note: Homo sapiens, 96 h, isolated human TH17 cells, 4 days culture, IL-17A by HTRF; read-out: pIC50 IL-17 release (converted).
On to `CS(=O)(=O)c1ccc2c(c1)CN(C(=O)C1CC(O)C1)C2C(=O)Nc1ccc(C(O)(C(F)(F)F)C(F)(F)F)cc1` (stereo not drawn) [Example 430, N-[4-(1,1,1,3,3,3-Hexafluoro-2-hydroxypropan-2-yl)phenyl]-2-[(trans-3-hydroxycyclobutyl)carbonyl]-5-(methylsulfonyl)-2,3-dihydro-1H-isoindole-1-carboxamide], for which the IC50 was 126 nM.
As for `C[C@H](O)CC(=O)N1Cc2cc(S(C)(=O)=O)ccc2C1C(=O)Nc1ccc(C(O)(C(F)(F)F)C(F)(F)F)cc1` (stereo partly drawn) [Example 433, N-[4-(1,1,1,3,3,3-Hexafluoro-2-hydroxypropan-2-yl)phenyl]-2-[(3S)-3-hydroxybutanoyl]-5-(methylsulfonyl)-2,3-dihydro-1H-isoindole-1-carboxamide], the IC50 is 79.4 nM.
With `COC1(C(=O)N2Cc3cc(S(C)(=O)=O)ccc3C2C(=O)Nc2ccc(C(O)(C(F)(F)F)C(F)(F)F)cc2)CCCC1` (stereo not drawn) [Example 434], the IC50 is 25.1 nM.
Consider `CC(=O)N1Cc2cc(S(C)(=O)=O)ccc2C1C(=O)Nc1ccc(C(O)(C(F)(F)F)C(F)(F)F)c(F)c1` (stereo not drawn) [Example 435, 2-Acetyl-N-[3-fluoro-4-(1,1,1,3,3,3-hexafluoro-2-hydroxypropan-2-yl)phenyl]-5-(methylsulfonyl)-2,3-dihydro-1H-isoindole-1-carboxamide], for which the IC50 was 20 nM.
On the same count and under the same terms, under `CS(=O)(=O)c1ccc2c(c1)CN(C(=O)C1(C#N)CC1)C2C(=O)Nc1ccc(C(O)(C(F)(F)F)C(F)(F)F)cc1F` (stereo not drawn) [Example 436, 2-[(1-Cyanocyclopropyl)carbonyl]-N-[2-fluoro-4-(1,1,1,3,3,3-hexafluoro-2-hydroxypropan-2-yl)phenyl]-5-(methylsulfonyl)-2,3-dihydro-1H-isoindole-1-carboxamide] stands 15.8 nM; under `CC(=O)N1Cc2cc(S(C)(=O)=O)ccc2C1C(=O)Nc1ccc(C(O)(C(F)(F)F)C(F)(F)F)cc1F` (stereo not drawn) [Example 437, 2-Acetyl-N-[2-fluoro-4-(1,1,1,3,3,3-hexafluoro-2-hydroxypropan-2-yl)phenyl]-5-(methylsulfonyl)-2,3-dihydro-1H-isoindole-1-carboxamide], 20 nM.
With `CS(=O)(=O)c1ccc2c(c1)CN(C(=O)C1(C#N)CC1)C2C(=O)Nc1ccc(C(O)(C(F)(F)F)C(F)(F)F)c(F)c1` (stereo not drawn) [Example 439, 2-[(1-Cyanocyclopropyl)carbonyl]-N-[3-fluoro-4-(1,1,1,3,3,3-hexafluoro-2-hydroxypropan-2-yl)phenyl]-5-(methylsulfonyl)-2,3-dihydro-1H-isoindole-1-carboxamide], the IC50 was 25.1 nM.
With `COC1(C(=O)N2Cc3cc(S(C)(=O)=O)ccc3C2C(=O)Nc2ccc(C(O)(C(F)(F)F)C(F)(F)F)c(F)c2)CC1` (stereo not drawn) [Example 440, N-[3-Fluoro-4-(1,1,1,3,3,3-hexafluoro-2-hydroxypropan-2-yl)phenyl]-2-[(1-methoxycyclopropyl)carbonyl]-5-(methylsulfonyl)-2,3-dihydro-1H-isoindole-1-carboxamide], the IC50 was 31.6 nM.
Same read-out and setting: the result for `COC1(C(=O)N2Cc3cc(S(C)(=O)=O)ccc3C2C(=O)Nc2ccc(C(O)(C(F)(F)F)C(F)(F)F)cc2F)CC1` (stereo not drawn) [Example 441, N-[2-Fluoro-4-(1,1,1,3,3,3-hexafluoro-2-hydroxypropan-2-yl)phenyl]-2-[(1-methoxycyclopropyl)carbonyl]-5-(methylsulfonyl)-2,3-dihydro-1H-isoindole-1-carboxamide] reads 25.1 nM.
The same measure, in the same setting: under `CS(=O)(=O)c1ccc2c(c1)CN(C=O)C2C(=O)Nc1ccc(C(O)(C(F)(F)F)C(F)(F)F)cc1F` (stereo not drawn) [Example 442] stands 50.1 nM; under `CC1(C(=O)N2Cc3cc(S(C)(=O)=O)ccc3C2C(=O)Nc2ccc(C(O)(C(F)(F)F)C(F)(F)F)cc2)COC1` (stereo not drawn) [Example 443], 100 nM.
The same measure, in the same setting: under `CS(=O)(=O)c1ccc2c(c1)CN(C(=O)C1COC1)C2C(=O)Nc1ccc(C(O)(C(F)(F)F)C(F)(F)F)cc1` (stereo not drawn) [Example 444, N-[4-(1,1,1,3,3,3-Hexafluoro-2-hydroxypropan-2-yl)phenyl]-5-(methylsulfonyl)-2-(oxetan-3-ylcarbonyl)-2,3-dihydro-1H-isoindole-1-carboxamide] stands 63.1 nM; under `CS(=O)(=O)c1ccc2c(c1)CN(C(=O)C1(F)CC1)C2C(=O)Nc1ccc(C(O)(C(F)(F)F)C(F)(F)F)cc1` (stereo not drawn) [Example 446, 2-[(1-Fluorocyclopropyl)carbonyl]-N-[4-(1,1,1,3,3,3-hexafluoro-2-hydroxypropan-2-yl)phenyl]-5-(methylsulfonyl)-2,3-dihydro-1H-isoindole-1-carboxamide], 31.6 nM; under `CCC(OC)C(=O)N1Cc2cc(S(C)(=O)=O)ccc2C1C(=O)Nc1ccc(C(O)(C(F)(F)F)C(F)(F)F)cc1` (stereo not drawn) [Example 447, N-[4-(1,1,1,3,3,3-Hexafluoro-2-hydroxypropan-2-yl)phenyl]-2-(2-methoxybutanoyl)-5-(methylsulfonyl)-2,3-dihydro-1H-isoindole-1-carboxamide], 50.1 nM.
Regarding `CCNC(=O)N1Cc2cc(S(C)(=O)=O)ccc2C1C(=O)Nc1ccc(C(O)(C(F)(F)F)C(F)(F)F)cc1` (stereo not drawn) [Example 454, N^2-Ethyl-N^1-[4-(1,1,1,3,3,3-hexafluoro-2-hydroxypropan-2-yl)phenyl]-5-(methylsulfonyl)-1,3-dihydro-2H-isoindole-1,2-dicarboxamide], the IC50 was 39.8 nM.
On the same count and under the same terms, under `CS(=O)(=O)c1ccc2c(c1)CN(C(N)=O)C2C(=O)Nc1ccc(C(O)(C(F)(F)F)C(F)(F)F)cc1` (stereo not drawn) [Example 455, N^1-[4-(1,1,1,3,3,3-Hexafluoro-2-hydroxypropan-2-yl)phenyl]-5-(methylsulfonyl)-1,3-dihydro-2H-isoindole-1,2-dicarboxamide] stands 100 nM; under `CS(=O)(=O)c1ccc2c(c1)CN(C(=O)NC1CC1)C2C(=O)Nc1ccc(C(O)(C(F)(F)F)C(F)(F)F)cc1` (stereo not drawn) [Example 456, N^2—Cyclopropyl-N^1-[4-(1,1,1,3,3,3-hexafluoro-2-hydroxypropan-2-yl)phenyl]-5-(methylsulfonyl)-1,3-dihydro-2H-isoindole-1,2-dicarboxamide], 12.6 nM; under `COC(=O)N1Cc2cc(S(=O)(=O)C3CC3)ccc2C1C(=O)Nc1ccc(C(O)(C(F)(F)F)C(F)(F)F)cc1` (stereo not drawn) [Example 602, Methyl 5-(cyclopropylsulfonyl)-1-{[4-(1,1,1,3,3,3-hexafluoro-2-hydroxypropan-2-yl)phenyl]carbamoyl}-1,3-dihydro-2H-isoindole-2-carboxylate], 25.1 nM.
Same read-out and setting: the result for `O=CN1Cc2cc(S(=O)(=O)C3CC3)ccc2C1C(=O)Nc1ccc(C(O)(C(F)(F)F)C(F)(F)F)cc1` (stereo not drawn) [Example 604, 5-(Cyclopropylsulfonyl)-2-formyl-N-[4-(1,1,1,3,3,3-hexafluoro-2-hydroxypropan-2-yl)phenyl]-2,3-dihydro-1H-isoindole-1-carboxamide] reads 50.1 nM; that for `COCC(=O)N1Cc2cc(S(=O)(=O)C3CC3)ccc2C1C(=O)Nc1ccc(C(O)(C(F)(F)F)C(F)(F)F)cc1` (stereo not drawn) [Example 606, 5-(Cyclopropylsulfonyl)-N-[4-(1,1,1,3,3,3-hexafluoro-2-hydroxypropan-2-yl)phenyl]-2-(methoxyacetyl)-2,3-dihydro-1H-isoindole-1-carboxamide], 31.6 nM; that for `N#CC1(C(=O)N2Cc3cc(S(=O)(=O)C4CC4)ccc3C2C(=O)Nc2ccc(C(O)(C(F)(F)F)C(F)(F)F)cc2)CC1` (stereo not drawn) [Example 607, 2-[(1-Cyanocyclopropyl)carbonyl]-5-(cyclopropylsulfonyl)-N-[4-(1,1,1,3,3,3-hexafluoro-2-hydroxypropan-2-yl)phenyl]-2,3-dihydro-1H-isoindole-1-carboxamide], 39.8 nM.
On the same count and under the same terms, under `O=C(Nc1ccc(C(O)(C(F)(F)F)C(F)(F)F)cc1)C1c2ccc(S(=O)(=O)C3CC3)cc2CN1C(=O)[C@@H]1CCCO1` (stereo partly drawn) [Example 608, 5-(Cyclopropylsulfonyl)-N-[4-(1,1,1,3,3,3-hexafluoro-2-hydroxypropan-2-yl)phenyl]-2-[(2S)-tetrahydrofuran-2-ylcarbonyl]-2,3-dihydro-1H-isoindole-1-carboxamide] stands 39.8 nM.
Regarding `O=C(Nc1ccc(C(O)(C(F)(F)F)C(F)(F)F)cc1)C1c2ccc(S(=O)(=O)C3CC3)cc2CN1C(=O)[C@H]1CCCO1` (stereo partly drawn) [Example 609, 5-(Cyclopropylsulfonyl)-N-[4-(1,1,1,3,3,3-hexafluoro-2-hydroxypropan-2-yl)phenyl]-2-[(2R)-tetrahydrofuran-2-ylcarbonyl]-2,3-dihydro-1H-isoindole-1-carboxamide], the IC50 was 50.1 nM.
Turning to `CNC(=O)N1Cc2cc(S(=O)(=O)C3CC3)ccc2C1C(=O)Nc1ccc(C(O)(C(F)(F)F)C(F)(F)F)cc1` (stereo not drawn) [Example 610], the IC50 was 63.1 nM.
The same measure, in the same setting: the result for `COCCS(=O)(=O)c1ccc2c(c1)CNC2C(=O)Nc1ccc(C(O)(C(F)(F)F)C(F)(F)F)cc1` (stereo not drawn) [Example 700, N-(4-(1,1,1,3,3,3-hexafluoro-2-hydroxypropan-2-yl)phenyl)-5-((2-methoxyethyl)sulfonyl)isoindoline-1-carboxamide] reads 100 nM; that for `COCCS(=O)(=O)c1ccc2c(c1)CN(C=O)C2C(=O)Nc1ccc(C(O)(C(F)(F)F)C(F)(F)F)cc1` (stereo not drawn) [Example 701, 2-Formyl-N-[4-(1,1,1,3,3,3-hexafluoro-2-hydroxypropan-2-yl)phenyl]-5-[(2-methoxyethyl)sulfonyl]-2,3-dihydro-1H-isoindole-1-carboxamide], 15.8 nM.
